The text below walks through data of patent US11396517B1, “Exo-aza spiro inhibitors of menin-MLL interaction” (Janssen Pharmaceutica NV, priority 2017, dated 2022).

Bounds are passed on as bounds.

The assay has as its target T1, menin (Homo sapiens, UniProt O00255, T541A).
T1 construct: Menin (a.a. 1-610-6×his tag)
T1 sequence (O00255 with tags, fused parts or gaps T541A): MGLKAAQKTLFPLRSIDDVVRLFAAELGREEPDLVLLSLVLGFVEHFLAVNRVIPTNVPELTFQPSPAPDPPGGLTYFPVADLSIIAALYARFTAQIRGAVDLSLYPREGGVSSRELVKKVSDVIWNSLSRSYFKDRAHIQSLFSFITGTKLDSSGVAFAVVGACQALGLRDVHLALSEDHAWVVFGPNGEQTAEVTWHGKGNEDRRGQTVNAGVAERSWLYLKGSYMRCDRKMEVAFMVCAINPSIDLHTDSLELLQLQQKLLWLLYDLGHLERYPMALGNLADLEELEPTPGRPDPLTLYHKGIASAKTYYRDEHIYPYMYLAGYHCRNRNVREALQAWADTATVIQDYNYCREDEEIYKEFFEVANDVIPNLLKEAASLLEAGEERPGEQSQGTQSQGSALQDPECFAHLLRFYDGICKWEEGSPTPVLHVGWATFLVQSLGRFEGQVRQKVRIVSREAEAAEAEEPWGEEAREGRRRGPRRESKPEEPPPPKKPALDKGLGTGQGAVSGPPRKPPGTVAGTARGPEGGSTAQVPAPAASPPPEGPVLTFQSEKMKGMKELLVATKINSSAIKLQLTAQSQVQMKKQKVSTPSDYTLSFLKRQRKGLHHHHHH
As to the kind of experiment: Menin/MLL homogenous time-resolved fluorescence (HTRF) assay. It counts as binding. The conditions noted are these: location 2; read-out: (2) location 2 Menin HTRF assay (IC50 (nM)). How it is done:
2) Menin/MLL Homogenous Time-Resolved Fluorescence (HTRF) Assay
To an untreated, white 384-well microtiter plate was added 40 nL 200× test compound in DMSO and 4 μL 2× terbium chelate-labeled menin (vide infra for preparation) in assay buffer (40 mM Tris HCl, pH 7.5, 50 mM NaCl, 1 mM DTT and 0.05% Pluronic F-127). After incubation of test compound and terbium chelate-labeled menin for 5 min at ambient temperature, 4 μL 2× FITC-MBM1 peptide (FITC-β-alanine-[…]-NH2 (SEQ ID NO: 23)) in assay buffer was added, the microtiter plate centrifuged at 1000 rpm for 1 min and the assay mixtures incubated for 15 min at ambient temperature. The relative amount of menin.FITC-MBM1 complex present in an assay mixture is determined by measuring the homogenous time-resolved fluorescence (HTRF) of the terbium/FITC donor/acceptor fluorphore pair using a BMG Pherastar plate reader (ex. 337 nm/terbium em. 490 nm/FITC em. 520 nm) at ambient temperature. The degree of fluorescence resonance energy transfer (the HTRF value) is expressed as the ratio of the fluorescence emission intensities of the FITC and terbium fluorophores (Fern 520 nm/Fem 490 nm). The final concentrations of reagents in the binding assay are […] terbium chelate-labeled menin (location 2), 75 nM FITC-MBM1 peptide and 0.5% DMSO in assay buffer. Dose-response titrations of test compounds are conducted using an 11 point, three-fold serial dilution scheme, starting typically at 25 μM (location 1) or starting typically at 10 μM (location 2).
Compound potencies were determined by first calculating % inhibition at each compound concentration according to equation 1: % inhibition=((HC−LC)−(HTRF^compound−LC))/(HC−LC))*100 (Eqn 1)
Where LC and HC are the HTRF values of the assay in the presence or absence of a saturating concentration of a compound that competes with FITC-MBM1 for binding to menin, and HTRF^compound is the measured HTRF value in the presence of the test compound. FTC and LC HTRF values represent an average of at least 16 replicates per plate.
Where Bottom and Top are the lower and upper asymptotes of the dose-response curve, respectively, IC50 is the concentration of compound that yields 50% inhibition of signal and h is the Hill coefficient.
Preparation of Terbium cryptate labeling of Menin: Menin (a.a. 1-610-6×his tag (“6×his” disclosed as SEQ ID NO: 3)) was labeled with terbium cryptate as follows. 2 mg of Menin was buffer exchanged into 1× phosphate buffered saline. 16 uM Menin was incubated with 4-fold molar excess NHS-terbium cryptate (Cisbio Bioassays, Bedford, Mass.) for 2 hours at room temperature. The labeled protein was purified away from free label by running the reaction over a Superdex 200 Increase 10/300 GL column at 0.75 ml/min. Peak fractions were collected, aliquoted and frozen at −80° C.

In the case of `CS(=O)(=O)Nc1ccc(C(=O)NC2CC3(CCN(c4ncnc5sc(CC(F)(F)F)cc45)C3)C2)cc1` (single isomer, unassigned) [Compound 28], the IC50 (usually the point on the concentration scale where inhibition reaches its midpoint) was greater than 10000 nM. The figure for `CS(=O)(=O)Nc1ccc(C(=O)NC2CC3(CCN(c4ncnc5sc(CC(F)(F)F)cc45)C3)C2)cc1` (single isomer, unassigned) [Compound 29] is 316 nM; for `FC(F)(F)Cc1cc2c(N3CCC4(CCC(Nc5ccccc5)C4)C3)ncnc2s1` (single isomer, unassigned) [Compound 31] it is 241 nM.

For the compound `FC(F)(F)Cc1cc2c(N3CCC4(CCC(Nc5ccccc5)C4)C3)ncnc2s1` (single isomer, unassigned) [Compound 32], the IC50 was found to be 123 nM. In the case of `FC(F)(F)Cc1cc2c(N3CCC4(CCC(Nc5ccccc5)C4)C3)ncnc2s1` (single isomer, unassigned) [Compound 34] it was 338 nM.

With `O=C(NC1CC2(CCN(c3ncnc4sc(CC(F)(F)F)cc34)C2)C1)c1ccccc1` (single isomer, unassigned) [Compound 37], the IC50 amounted to 8340 nM. In the case of `CNc1nc(N2CCC3(CC(NCc4ccccc4)C3)C2)c2cc(CC(F)(F)F)sc2n1` (single isomer, unassigned) [Compound 62] it was 115 nM.

On to `CNC(=O)c1ccc(NC2CC3(CCN(c4nc(NC)nc5sc(CC(F)(F)F)cc45)C3)C2)cc1` (single isomer, unassigned) [Compound 65], for which the IC50 is 133 nM. On to `CNC(=O)c1ccc(NC2CC3(CCN(c4ncnc5sc(CC(F)(F)F)cc45)C3)C2)c(Cl)c1` (single isomer, unassigned) [Compound 68], for which the IC50 came to 39.6 nM.

As for `CNC(=O)c1ccc(NC2CC3(CCN(c4ncnc5sc(CC(F)(F)F)cc45)C3)C2)nc1` (single isomer, unassigned) [Compound 71], the IC50 was determined as 433 nM.

As for `CN(C)CCNC(=O)c1ccc(NC2CC3(CCN(c4ncnc5sc(CC(F)(F)F)cc45)C3)C2)cc1` (single isomer, unassigned) [Compound 74], the IC50 came out at 60.4 nM.

Turning to `Cn1c(=O)[nH]c2cc(NC3CC4(CCN(c5ncnc6sc(CC(F)(F)F)cc56)C4)C3)ccc21` (single isomer, unassigned) [Compound 91], the IC50 worked out at 166 nM. Take `CNC(=O)c1ccc(NC2CCC3(C2)CN(c2ncnc4sc(CC(F)(F)F)cc24)C3)cc1` (single isomer, unassigned) [Compound 97]: the IC50 was 213 nM. `O=C1CN(C(=O)c2ccc(NC3CC4(CCN(c5ncnc6sc(CC(F)(F)F)cc56)C4)C3)cc2)CCN1` (single isomer, unassigned) [Compound 105]: the IC50 stood at 3040 nM.

Consider `Cc1nc(N2CC3(CC[C@H](NCc4cccc(-c5cc[nH]n5)c4)C3)C2)c2cc(CC(F)(F)F)sc2n1` (single isomer, unassigned) [Compound 118], for which the IC50 was 256 nM. On to `FC(F)(F)Cc1cc2c(N3CCC4(CC(Nc5ccccc5)C4)C3)ncnc2s1` (single isomer, unassigned) [Compound 150], for which the IC50 turned out to be 370 nM. In the case of `FC(F)(F)Cc1cc2c(N3CCC4(CC(Nc5cccnc5)C4)C3)ncnc2s1` (single isomer, unassigned) [Compound 152] it was 288 nM. With `N#CC1(c2ccc(NC3CC4(CCN(c5ncnc6sc(CC(F)(F)F)cc56)C4)C3)cc2)CC1` (single isomer, unassigned) [Compound 171], the IC50 is 265 nM.

For `CS(=O)(=O)N1CCN(C(=O)c2ccc(NC3CC4(CCN(c5ncnc6sc(CC(F)(F)F)cc56)C4)C3)cc2)CC1` (single isomer, unassigned) [Compound 179], the IC50 was found to be 2900 nM.

Turning to `COC1CCN(C(=O)c2ccc(NC3CC4(CCN(c5ncnc6sc(CC(F)(F)F)cc56)C4)C3)cc2)CC1` (single isomer, unassigned) [Compound 184], the IC50 is 3430 nM. In the case of `O=C(c1ccc(NC2CC3(CCN(c4ncnc5sc(CC(F)(F)F)cc45)C3)C2)cc1)N1CCNCC1` (single isomer, unassigned) [Compound 188] it was 200 nM; in that of `CNC(=O)c1ccc(NC2CC3(CCN(c4ncnc5sc(CC(F)(F)F)cc45)C3)C2)cc1F` (single isomer, unassigned) [Compound 204], 84.6 nM; in that of `N#CCc1ccc(NC2CC3(CCN(c4ncnc5sc(CC(F)(F)F)cc45)C3)C2)c(Cl)c1` (single isomer, unassigned) [Compound 209], 65.3 nM. The figure for `N#CCc1ccc(NC2CC3(CCN(c4ncnc5sc(CC(F)(F)F)cc45)C3)C2)cc1Cl` (single isomer, unassigned) [Compound 210] is 70.4 nM; for `O=S(=O)(c1ccc(NC2CC3(CCN(c4ncnc5sc(CC(F)(F)F)cc45)C3)C2)cc1)N1CCOCC1` (single isomer, unassigned) [Compound 220] it is 118 nM; for `CNC(=O)c1ccc(NC2CC3(CCN(c4ncnc5sc(CC(F)(F)F)cc45)C3)C2)cc1C1CCN(C)CC1` (single isomer, unassigned) [Compound 231] it is 208 nM. `CN1CCC(c2cc(NC3CC4(CCN(c5ncnc6sc(CC(F)(F)F)cc56)C4)C3)ccc2C(=O)N2CCOCC2)CC1` (single isomer, unassigned) [Compound 233]: the IC50 was found to be 108 nM. For `CNC(=O)c1c(F)cc(NC2CC3(CCN(c4ncnc5sc(CC(F)(F)F)cc45)C3)C2)cc1F` (single isomer, unassigned) [Compound 244], the IC50 was found to be 516 nM. Regarding `O=C(c1cnc(NC2CC3(CCN(c4ncnc5sc(CC(F)(F)F)cc45)C3)C2)nc1)N1CCOCC1` (single isomer, unassigned) [Compound 259], the IC50 was greater than 10000 nM. For the compound `Cc1nc(N2CCC3(CC(NCc4ccccc4)C3)C2)c2cc(CC(F)(F)F)sc2n1` (single isomer, unassigned) [Compound 261], the IC50 amounted to 529 nM. In the case of `COc1nc(N2CCC3(CC(Nc4ccccc4)C3)C2)c2cc(CC(F)(F)F)sc2n1` (single isomer, unassigned) [Compound 266] it was 1020 nM; in that of `CNc1nc(N2CCC3(CC(Nc4ccccc4)C3)C2)c2cc(CC(F)(F)F)sc2n1` (single isomer, unassigned) [Compound 268], 943 nM; in that of `CC(C)(N[C@@H]1CCC2(C1)CN(c1ncnc3sc(CC(F)(F)F)cc13)C2)c1ccccc1` (single isomer, unassigned) [Compound 280], 158 nM. In the case of `CNS(=O)(=O)c1ccc(N[C@@H]2CCC3(C2)CN(c2ncnc4sc(CC(F)(F)F)cc24)C3)cc1` (single isomer, unassigned) [Compound 290] it was 231 nM.

Consider `O=C1Cc2ccc(N[C@H]3CCC4(C3)CN(c3ncnc5sc(CC(F)(F)F)cc35)C4)cc2N1` (single isomer, unassigned) [Compound 294], for which the IC50 worked out at 58.4 nM. In the case of `O=c1[nH]c2ccc(N[C@@H]3CCC4(C3)CN(c3ncnc5sc(CC(F)(F)F)cc35)C4)cc2o1` (single isomer, unassigned) [Compound 296] it was 146 nM; in that of `O=c1[nH]c2ccc(N[C@H]3CCC4(C3)CN(c3ncnc5sc(CC(F)(F)F)cc35)C4)cc2o1` (single isomer, unassigned) [Compound 297], 131 nM.
